Laboratory results reported in PubChem BioAssay AID248 (DTP/NCI, 2004).
Values joined by “and” are separate entries in the source; they are usually repeats but may differ in a detail not shown here. Equal entries are not always repeated. Toxic doses and inconclusive results are not listed. Cut-off read from the data, not from the text of the source: active = T/C of 150% or more; inactive = T/C below 125%.

Tested on: L1210 leukemia ip in BDF1 mice, survival T/C
Assay: NCI In Vivo Anticancer Drug Screen. Data for tumor model L1210 Leukemia (intraperitoneal) in B6D2F1 (BDF1) mice
Conditions: higher = longer survival
How it was run: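 Transplantable tumor model; survival measured in treated vs vehicle control mice. Value = treated/control.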

[1] = endpoint: mean survival time, dose: 100.0 mg/kg/injection, schedule: Q01DX001 (ip), vehicle: saline
[2] = endpoint: mean survival time, dose: 200.0 mg/kg/injection, schedule: Q01DX001 (ip), vehicle: saline
[3] = endpoint: mean survival time, dose: 400.0 mg/kg/injection, schedule: Q01DX001 (ip), vehicle: saline
[4] = endpoint: mean survival time, dose: 100.0 mg/kg/injection, schedule: Q04DX002 (ip), vehicle: saline with Tween-80
[5] = endpoint: mean survival time, dose: 100.0 mg/kg/injection, schedule: Q04DX003 (ip), vehicle: saline with Tween-80
[6] = endpoint: mean survival time, dose: 200.0 mg/kg/injection, schedule: Q04DX003 (ip), vehicle: saline with Tween-80
[7] = endpoint: mean survival time, dose: 6.25 mg/kg/injection, schedule: Q01DX009 (ip), vehicle: saline
[8] = endpoint: mean survival time, dose: 12.5 mg/kg/injection, schedule: Q01DX009 (ip), vehicle: saline

Measured: T/C

Nc1[nH]c(=O)[nH]c(=O)c1N=Nc1ccc(S(=O)(=O)Nc2nccs2)cc1
inactive: [1] 98 % of control | [2] 100 % of control | [3] 102 % of control

CCCCCCCCCCCCCC(C)C
inactive: [1] 96 % of control | [2] 102 % of control | [3] 94 % of control

Cc1c(NC(=O)Nc2cccc(Cl)c2)nc(Br)c2ccccc12
inactive: [4] 101 % of control | endpoint: mean survival time, dose: 200.0 mg/kg/injection, schedule: Q04DX002 (ip), vehicle: saline with Tween-80 96 % of control

C=C(C)CC1(CC)C(=O)NC(=S)NC1=O
inactive: [5] 96 % of control | [6] 98 % of control

CCOC(OCC)c1nc(N)c2cnn(C)c2n1
inactive: [7] 89 % of control | [8] 97 % of control | endpoint: mean survival time, dose: 25.0 mg/kg/injection, schedule: Q01DX009 (ip), vehicle: saline 106 % of control and 110 % of control | endpoint: mean survival time, dose: 50.0 mg/kg/injection, schedule: Q01DX009 (ip), vehicle: saline 94 % of control | endpoint: mean survival time, dose: 100.0 mg/kg/injection, schedule: Q04DX002 (ip), vehicle: saline 112 % of control

CCOC(=S)NS(=O)(=O)c1ccccc1
inactive: endpoint: mean survival time, dose: 100.0 mg/kg/injection, schedule: Q01DX001 (ip), vehicle: acetone 98 % of control | endpoint: mean survival time, dose: 200.0 mg/kg/injection, schedule: Q01DX001 (ip), vehicle: acetone 110 % of control | endpoint: mean survival time, dose: 400.0 mg/kg/injection, schedule: Q01DX001 (ip), vehicle: acetone 98 % of control

C1CC(C2OCOC3COCOC32)OO1 (configuration not stated)
inactive: endpoint: mean survival time, dose: 222.0 mg/kg/injection, schedule: Q01DX Z (ip), vehicle: methylcellulose (MC) 89 % of control | endpoint: mean survival time, dose: 333.0 mg/kg/injection, schedule: Q01DX Z (ip), vehicle: methylcellulose (MC) 104 % of control | endpoint: mean survival time, dose: 500.0 mg/kg/injection, schedule: Q01DX Z (ip), vehicle: methylcellulose (MC) 92 % of control

CCCCCCCCCCCCCCOc1ccc(Sc2ccc([N+](=O)[O-])cc2)cc1
inactive: endpoint: mean survival time, dose: 100.0 mg/kg/injection, schedule: Q01DX001 (ip), vehicle: Klucel (hydroxypropylcellulose) (HPC) 106 % of control | endpoint: mean survival time, dose: 200.0 mg/kg/injection, schedule: Q01DX001 (ip), vehicle: Klucel (hydroxypropylcellulose) (HPC) 90 % of control | endpoint: mean survival time, dose: 400.0 mg/kg/injection, schedule: Q01DX001 (ip), vehicle: Klucel (hydroxypropylcellulose) (HPC) 89 % of control

COC(=O)C(CCc1cc(OC)c(OC)c(OC)c1)C(C(=O)OC)C(=O)OC (configuration not stated)
inactive: endpoint: mean survival time, dose: 100.0 mg/kg/injection, schedule: Q04DX003 (ip), vehicle: Klucel (hydroxypropylcellulose) (HPC) 87 % of control | endpoint: mean survival time, dose: 200.0 mg/kg/injection, schedule: Q04DX003 (ip), vehicle: Klucel (hydroxypropylcellulose) (HPC) 94 % of control | endpoint: mean survival time, dose: 400.0 mg/kg/injection, schedule: Q04DX003 (ip), vehicle: Klucel (hydroxypropylcellulose) (HPC) 89 % of control

Nc1nc(CNc2ccc(Cl)cc2)nc(Nc2ccc(Cl)cc2)n1
inactive: [5] 89 % of control | [6] 95 % of control | endpoint: mean survival time, dose: 400.0 mg/kg/injection, schedule: Q04DX003 (ip), vehicle: saline with Tween-80 95 % of control

CCCCC(=O)NC1=C(Cl)C(=O)c2ccccc2C1=O
inactive: endpoint: mean survival time, dose: 75.0 mg/kg/injection, schedule: Q01DX001 (ip), vehicle: saline 89 % of control | endpoint: mean survival time, dose: 150.0 mg/kg/injection, schedule: Q01DX001 (ip), vehicle: saline 90 % of control

CN(C)CCC(C=O)(CCN(C)C)c1cccc2ccccc12
inactive: endpoint: mean survival time, dose: 25.0 mg/kg/injection, schedule: Q04DX002 (ip), vehicle: saline with Tween-80 116 % of control | endpoint: mean survival time, dose: 50.0 mg/kg/injection, schedule: Q04DX002 (ip), vehicle: saline with Tween-80 94 % of control | [4] 94 % of control

CC(C)=CCC(OC(=O)C=C(C)C)C1=CC(=O)c2c(O)ccc(O)c2C1=O (configuration not stated)
inactive: [7] 93 % of control | endpoint: mean survival time, dose: 6.25 mg/kg/injection, schedule: Q04DX003 (ip), vehicle: saline 98 % of control | [8] 92 % of control | endpoint: mean survival time, dose: 12.5 mg/kg/injection, schedule: Q04DX003 (ip), vehicle: saline 101 % of control | endpoint: mean survival time, dose: 25.0 mg/kg/injection, schedule: Q04DX003 (ip), vehicle: saline 104 % of control

COc1cc(NC(C)=O)c2ncccc2c1
inactive: endpoint: mean survival time, dose: 100.0 mg/kg/injection, schedule: Q01DX009 (ip), vehicle: saline with Tween-80 99 % of control | endpoint: mean survival time, dose: 200.0 mg/kg/injection, schedule: Q01DX009 (ip), vehicle: saline with Tween-80 106 % of control

CC(=O)c1cccc(NC2C(N)C(NC(=O)N(C)C)(C(C)O)C(C)(O)C2(O)COC(=O)c2c(C)cccc2O)c1 (configuration not stated)
inactive: endpoint: mean survival time, dose: 0.25 mg/kg/injection, schedule: Q01DX Z (ip), vehicle: saline 98 % of control | endpoint: mean survival time, dose: 0.5 mg/kg/injection, schedule: Q01DX Z (ip), vehicle: saline 98 % of control | endpoint: mean survival time, dose: 0.7 mg/kg/injection, schedule: Q01DX015 (ip), vehicle: carboxymethylcellulose (CMC) 111 % of control | endpoint: mean survival time, dose: 1.0 mg/kg/injection, schedule: Q01DX Z (ip), vehicle: saline 113 % of control | endpoint: mean survival time, dose: 1.5 mg/kg/injection, schedule: Q01DX015 (ip), vehicle: carboxymethylcellulose (CMC) 122 % of control | endpoint: mean survival time, dose: 2.0 mg/kg/injection, schedule: Q01DX Z (ip), vehicle: saline 117 % of control | endpoint: mean survival time, dose: 3.0 mg/kg/injection, schedule: Q01DX001 (ip), vehicle: carboxymethylcellulose (CMC) 104 % of control | endpoint: mean survival time, dose: 3.0 mg/kg/injection, schedule: Q01DX015 (ip), vehicle: carboxymethylcellulose (CMC) 90 % of control | endpoint: mean survival time, dose: 6.0 mg/kg/injection, schedule: Q01DX001 (ip), vehicle: carboxymethylcellulose (CMC) 107 % of control | endpoint: mean survival time, dose: 12.0 mg/kg/injection, schedule: Q01DX001 (ip), vehicle: carboxymethylcellulose (CMC) 107 % of control | endpoint: mean survival time, dose: 25.0 mg/kg/injection, schedule: Q01DX001 (ip), vehicle: carboxymethylcellulose (CMC) 112 % of control | endpoint: mean survival time, dose: 50.0 mg/kg/injection, schedule: Q01DX001 (ip), vehicle: carboxymethylcellulose (CMC) 112 % of control | endpoint: mean survival time, dose: 100.0 mg/kg/injection, schedule: Q01DX001 (ip), vehicle: carboxymethylcellulose (CMC) 114 % of control | endpoint: median survival time, dose: 2.0 mg/kg/injection, schedule: Q04DX003 (ip), vehicle: acid diluted with saline 103 % of control | endpoint: median survival time, dose: 4.0 mg/kg/injection, schedule: Q04DX003 (ip), vehicle: acid diluted with saline 103 % of control | endpoint: median survival time, dose: 8.0 mg/kg/injection, schedule: Q04DX003 (ip), vehicle: acid diluted with saline 103 % of control | endpoint: median survival time, dose: 16.0 mg/kg/injection, schedule: Q04DX003 (ip), vehicle: acid diluted with saline 112 % of control

c1ccc(P(=NC2CCCCCCC2)(c2ccccc2)c2ccccc2)cc1
inactive: endpoint: mean survival time, dose: 100.0 mg/kg/injection, schedule: Q01DX001 (ip), vehicle: saline with Tween-80 96 % of control | endpoint: mean survival time, dose: 200.0 mg/kg/injection, schedule: Q01DX001 (ip), vehicle: saline with Tween-80 98 % of control | endpoint: mean survival time, dose: 400.0 mg/kg/injection, schedule: Q01DX001 (ip), vehicle: saline with Tween-80 105 % of control
